In US20040138238A1, “Substituted aminopyrimidine compounds as neurokinin antagonists” (priority 2002, published 2004):
Read-outs that look alike come from different tables or passages of the source.

Legend:
NK1 receptors = NK1 receptors (Homo sapiens, UniProt P25103); experiment: in vitro binding to NK1 receptors
Procedure: (§1) The activity of compounds of the invention were tested in vitro for binding to NK1 and NK2 receptors.

NK2 receptors = target: T1, NK2 receptors (Homo sapiens, UniProt P21452); experiment: in vitro binding to NK2 receptors; parameters: Ki (NK2), % @ 1000: concentration or dose not given beside the values; details: for Ki (NK2), % @ 1000: @ 1000 (concentration unit not given)
T1 sequence (P21452 1-398): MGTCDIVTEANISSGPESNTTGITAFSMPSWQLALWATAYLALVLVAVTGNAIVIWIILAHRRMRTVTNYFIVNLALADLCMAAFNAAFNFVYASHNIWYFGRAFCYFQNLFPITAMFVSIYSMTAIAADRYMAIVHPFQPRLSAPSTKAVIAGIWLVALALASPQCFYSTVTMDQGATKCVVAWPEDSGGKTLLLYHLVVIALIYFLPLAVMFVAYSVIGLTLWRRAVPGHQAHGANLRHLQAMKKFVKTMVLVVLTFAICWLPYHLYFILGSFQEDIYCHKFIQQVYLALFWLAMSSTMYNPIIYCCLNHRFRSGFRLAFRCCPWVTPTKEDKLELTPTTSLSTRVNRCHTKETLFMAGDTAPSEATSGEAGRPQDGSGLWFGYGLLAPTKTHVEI
Procedure: as §1

Sequence of NK1 receptors (P25103 whole entry): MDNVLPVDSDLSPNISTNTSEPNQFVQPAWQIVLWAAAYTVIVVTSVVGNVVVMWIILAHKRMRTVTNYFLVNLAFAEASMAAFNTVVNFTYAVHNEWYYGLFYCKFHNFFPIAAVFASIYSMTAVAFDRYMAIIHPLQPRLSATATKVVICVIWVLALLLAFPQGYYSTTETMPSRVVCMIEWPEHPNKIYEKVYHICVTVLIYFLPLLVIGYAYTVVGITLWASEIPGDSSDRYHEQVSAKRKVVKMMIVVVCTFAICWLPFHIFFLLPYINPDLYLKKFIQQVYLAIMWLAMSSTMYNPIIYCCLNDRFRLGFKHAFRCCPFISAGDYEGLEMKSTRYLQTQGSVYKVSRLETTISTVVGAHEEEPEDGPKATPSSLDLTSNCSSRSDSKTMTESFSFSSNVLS

SMILES	Ki (NK1 receptors)	Ki (NK2 receptors; unit inferred)	Ki (NK2), % @ 1000 (NK2 receptors)	Ki (NK2 receptors)
OC(CNC1CCN(c2ncnc3scc(-c4ccccc4)c23)CC1)COc1ccc(F)cc1F (centres unmarked) [1-(2,4-Difluoro-phenoxy)-3-[1-(5-phenyl-thieno[2,3-d]pyrimidin-4-yl)-piperidin-4-ylamino]-propan-2-ol]	0.286 µM			
COc1ccc(OCC(O)CNC2CCN(c3ncnc4scc(-c5ccccc5)c34)CC2)c(Cl)c1 (centres unmarked) [1-(2-Chloro-4-methoxy-phenoxy)-3-[1-(5-phenyl-thieno[2,3-d]pyrimidin-4-yl)-piperidin-4-ylamino]-propan-2-ol]	0.109 µM	1.57 µM		
OC(CNC1CCN(c2ncnc3scc(-c4ccccc4)c23)CC1)COc1ccc(Cl)c(Cl)c1 (centres unmarked) [1-(3,4-Dichloro-phenoxy)-3-[1-(5-phenyl-thieno[2,3-d]pyrimidin-4-yl)-piperidin-4-ylamino]-propan-2-ol]	0.268 µM	3.39 µM		
OC(CNC1CCN(c2ncnc3scc(-c4ccccc4)c23)CC1)COc1ccc(F)c(F)c1 (centres unmarked) [1-(3,4-Difluoro-phenoxy)-3-[1-(5-phenyl-thieno[2,3-d]pyrimidin-4-yl)-piperidin-4-ylamino]-propan-2-ol]	0.075 µM		28% @	
COc1ccc(OCC(O)CNC2CCN(c3ncnc4scc(-c5ccccc5)c34)CC2)cc1OC (centres unmarked) [1-(3,4-Dimethoxy-phenoxy)-3-[1-(5-phenyl-thieno[2,3-d]pyrimidin-4-yl)-piperidin-4-ylamino]-propan-2-ol]	0.126 µM	6.25 µM		
OC(CNC1CCN(c2ncnc3scc(-c4ccccc4)c23)CC1)COc1cc(C(F)(F)F)cc(C(F)(F)F)c1 (centres unmarked) [1-(3,5-Bis-trifluoromethyl-phenoxy)-3-[1-(5-phenyl-thieno[2,3-d]pyrimidin-4-yl)-piperidin-4-ylamino]-propan-2-ol]	1.31 µM	> 1 µM		
OC(CNC1CCN(c2ncnc3scc(-c4ccccc4)c23)CC1)COc1cc(F)cc(F)c1 (centres unmarked) [1-(3,5-Difluoro-phenoxy)-3-[1-(5-phenyl-thieno[2,3-d]pyrimidin-4-yl)-piperidin-4-ylamino]-propan-2-ol]	0.272 µM		21% @	
OC(CNC1CCN(c2ncnc3scc(-c4ccccc4)c23)CC1)COc1ccc(F)c(Cl)c1 (centres unmarked) [1-(3-Chloro-4-fluoro-phenoxy)-3-[1-(5-phenyl-thieno[2,3-d]pyrimidin-4-yl)-piperidin-4-ylamino]-propan-2-ol]	0.137 µM			
COc1cc(OCC(O)CNC2CCN(c3ncnc4scc(-c5ccccc5)c34)CC2)ccc1Cl (centres unmarked) [1-(4-Chloro-3-methoxy-phenoxy)-3-[1-(5-phenyl-thieno[2,3-d]pyrimidin-4-yl)-piperidin-4-ylamino]-propan-2-ol]	0.126 µM		47% @	
COc1ccc(OCC(O)CNC2CCN(c3ncnc4scc(-c5ccccc5)c34)CC2)cc1 (centres unmarked) [1-(4-Methoxy-phenoxy)-3-[1-(5-phenyl-thieno[2,3-d]pyrimidin-4-yl)-piperidin-4-ylamino]-propan-2-ol]	0.053 µM			1.7 µM

Other lines, results leading:

Ki (NK1 receptors)	Ki (NK2 receptors; unit inferred)	Ki (NK2), % @ 1000 (NK2 receptors)	Ki (NK2 receptors)	SMILES
1.83 µM				OC(CNC1CCN(c2ncnc3sccc23)CC1)COc1ccc2c(c1)OCO2 (centres unmarked) [1-(Benzo[1,3]dioxol-5-yloxy)-3-(1-thieno[2,3-d]pyrimidin-4-yl-piperidin-4-ylamino)-propan-2-ol]
0.868 µM				Cc1csc2ncnc(N3CCC(NCC(O)COc4ccc5c(c4)OCO5)CC3)c12 (centres unmarked) [1-(Benzo[1,3]dioxol-5-yloxy)-3-[1-(5-methyl-thieno[2,3-d]pyrimidin-4-yl)-piperidin-4-ylamino]-propan-2-ol]
0.0076 µM	> 10 µM			OC(CNC1CCN(c2ncnc3scc(-c4ccccc4)c23)CC1)COc1ccc2c(c1)OCO2 (centres unmarked) [1-(Benzo[1,3]dioxol-5-yloxy)-3-[1-(5-phenyl-thieno[2,3-d]pyrimidin-4-yl)-piperidin-4-ylamino]-propan-2-ol]
0.015 µM		49% @		OC(CNC1CCN(c2ncnc3scc(-c4ccccc4)c23)CC1)COc1ccc(OC(F)(F)F)cc1 (centres unmarked) [1-[1-(5-Phenyl-thieno[2,3-d]pyrimidin-4-yl)-piperidin-4-ylamino]-3-(4-trifluoromethoxy-phenoxy)-propan-2-ol]
0.472 µM				Fc1ccc(OCC2CN(C3CCN(c4ncnc5scc(-c6ccccc6)c45)CC3)CCO2)cc1 (centres unmarked) [4-{4-[2-(4-Fluoro-phenoxymethyl)-morpholin-4-yl]-piperidin-1-yl}-5-phenyl-thieno[2,3-d]pyrimidine]
1.86 µM				c1ccc(-c2csc3ncnc(N4CCC(N5CCOC(COc6ccc7c(c6)OCO7)C5)CC4)c23)cc1 (centres unmarked) [4-{4-[2-(Benzo[1,3]dioxol-5-yloxymethyl)-morpholin-4-yl]-piperidin-1-yl}-5-phenyl-thieno[2,3-d]pyrimidine]
1.32 µM				O=C1COC(COc2ccc3c(c2)OCO3)CN1C1CCN(c2ncnc3scc(-c4ccccc4)c23)CC1 (centres unmarked) [6-(Benzo[1,3]dioxol-5-yloxymethyl)-4-[1-(5-phenyl-thieno[2,3-d]pyrimidin-4-yl)-piperidin-4-yl]-morpholin-3-one]
0.141 µM			2.4 µM	OC(CNC1CCN(c2ncnc3scc(-c4ccccc4)c23)CC1)COCc1ccccc1 (centres unmarked) [(3-Benzyloxy-2-hydroxy-propyl)-[1-(5-phenyl-thieno[2,3-d]pyrimidin-4-yl)-piperidin-4-yl]-ammonium; chloride]
0.053 µM		14% @		Cl.OC(CNC1CCN(c2ncnc3scc(-c4ccccc4)c23)CC1)COc1ccc(C(F)(F)F)cc1 (centres unmarked) [[2-Hydroxy-3-(4-trifluoromethyl-phenoxy)-propyl]-[1-(5-phenyl-thieno[2,3-d]pyrimidin-4-yl)-piperidin-4-yl]-ammonium; chloride]
0.02 µM		28% @		Cl.OC(CNC1CCN(c2ncnc3scc(-c4ccccc4)c23)CC1)COc1ccc(Cl)c(Cl)c1 (centres unmarked) [[3-(3,4-Dichloro-phenoxy)-2-hydroxy-propyl]-[1-(5-phenyl-thieno[2,3-d]pyrimidin-4-yl)-piperidin-4-yl]-ammonium; chloride]
0.91 µM	> 10 µM			OC(CNC1CCN(c2ncnc3scc(-c4ccccc4)c23)CC1)COc1ccc(Cl)cc1 (centres unmarked) [[3-(4-Chloro-phenoxy)-2-hydroxy-propyl]-[1-(5-phenyl-thieno[2,3-d]pyrimidin-4-yl)-piperidin-4-yl]-ammonium; chloride]
